Measured values as given in patent publication US9738902B2, “Modified PYR/PYL receptors activated by ligands” (priority 2013, dated 2017).

Tests used:
[1] = system: PYR1 Y58H K59R V81I F108A F159L; assay: Y2H Combinatorial Mutagenesis II (HAB1, X-gal); type: cell-based, Arabidopsis
From the text: (§1) Both of the above optimization experiments led to the identification of the following mutations that, when introduced one at a time, enhance the mandipropamid sensitivity of PYR1^K59R,F108A,S122G: Y58H, V81C, V81I, V81T, V83L, L87A, F159L, F159M, F159V, A160V and V164I. Given that these each enhance sensitivity on their own, we tested if combinations of these mutations might generate more sensitive receptors. Mutagenic primers for each of the mutations were designed and used simultaneously with the QuickChange Lightning Multi Site-Directed Mutagenesis kit (Agilent, USA) with PYR1^K59R,F108A,S122G template DNA. Individual clones were sequenced to identify bona fide combination mutants, which were transformed into the Y190 pACT-HAB1 yeast strain and assayed for mandipropamid sensitivity. These efforts led to the identification of several improved receptors (“Combinatorial Mutagenesis Screen II”, Table 1), including PYR1^Y58H,K59R,V81I,F108A,S122G,F159L, a hextuple mutant that we have named PYR1^MANDI. Yeast reporter strains expressing this mutant are responsive to mandipropamid concentrations as low as 2 nM (Table 1). Thus, the 5-step mutagenesis protocol we followed led to the construction of a mandipropamid responsive receptor with nanomolar sensitivity.

[2] = target: T1, PYR1 K59R V81I F108A S122G A160V (Arabidopsis thaliana, UniProt O49686, A160V/F108A/K59R/S122G/V81I); assay: Y2H Combinatorial Mutagenesis II (HAB1, X-gal); type: cell-based
T1 construct: expressed in transfected cells; host or cells: S. cerevisiae Y190 pACT-HAB1
T1 sequence (O49686 whole entry K59R/V81I/F108A/S122G/A160V): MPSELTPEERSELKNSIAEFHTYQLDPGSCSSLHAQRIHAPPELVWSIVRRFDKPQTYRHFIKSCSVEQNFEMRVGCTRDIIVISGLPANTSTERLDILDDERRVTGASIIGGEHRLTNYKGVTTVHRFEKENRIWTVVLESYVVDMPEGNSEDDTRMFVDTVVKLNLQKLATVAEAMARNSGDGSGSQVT
T1 sequence (Q9CAJ0 23-511 partner): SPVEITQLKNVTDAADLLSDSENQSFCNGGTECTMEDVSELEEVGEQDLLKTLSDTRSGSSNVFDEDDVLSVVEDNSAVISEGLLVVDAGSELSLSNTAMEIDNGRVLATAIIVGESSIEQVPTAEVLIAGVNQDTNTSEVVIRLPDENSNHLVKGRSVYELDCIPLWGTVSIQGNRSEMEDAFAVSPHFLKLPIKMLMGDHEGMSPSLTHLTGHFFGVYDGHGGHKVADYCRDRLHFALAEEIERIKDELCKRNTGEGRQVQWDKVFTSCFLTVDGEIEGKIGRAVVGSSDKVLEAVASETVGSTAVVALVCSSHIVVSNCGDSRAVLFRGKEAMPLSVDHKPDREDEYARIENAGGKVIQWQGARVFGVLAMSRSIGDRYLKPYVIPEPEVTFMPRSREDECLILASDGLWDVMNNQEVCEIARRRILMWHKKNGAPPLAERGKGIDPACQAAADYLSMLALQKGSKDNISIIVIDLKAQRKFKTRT
From the text: as §1

[3] = target: T2, PYR1 Y58H K59R V81I F108A S122G (Arabidopsis thaliana, UniProt O49686, F108A/K59R/S122G/V81I/Y58H); assay: Y2H Combinatorial Mutagenesis II (HAB1, X-gal); type: cell-based
T2 construct: expressed in transfected cells; host or cells: S. cerevisiae Y190 pACT-HAB1
T2 sequence (O49686 whole entry Y58H/K59R/V81I/F108A/S122G): as the sequence (O49686 whole entry K59R/V81I/F108A/S122G/A160V) above, with Y58H, V160A counted along it
T2 sequence (Q9CAJ0 23-511 partner): as the sequence (Q9CAJ0 23-511 partner) above
From the text: as §1

[4] = target: T3, PYR1 Y58H K59R V81I F108A S122G (PYR1^MANDI) (Arabidopsis thaliana, UniProt O49686, F108A/F159L/K59R/S122G/V81I/Y58H); assay: Y2H Combinatorial Mutagenesis II (HAB1, X-gal); type: cell-based; settings: Y58H K59R V81I F108A S122G F150L
T3 construct: expressed in transfected cells; host or cells: S. cerevisiae Y190 pACT-HAB1
T3 sequence (O49686 whole entry Y58H/K59R/V81I/F108A/S122G/F159L): as the sequence (O49686 whole entry K59R/V81I/F108A/S122G/A160V) above, with Y58H, F159L, V160A counted along it
T3 sequence (Q9CAJ0 23-511 partner): as the sequence (Q9CAJ0 23-511 partner) above
From the text: as §1

[5] = target: T4, PYR1 Y58H K59R V81I F108A S122G F150L (PYR1^MANDI) (Arabidopsis thaliana, UniProt O49686, F108A/F159L/K59R/S122G/V81I/Y58H); assay: Y2H Combinatorial Mutagenesis II (HAB1, X-gal); type: cell-based; settings: PYR1^MANDI, yeast two hybrid
T4 construct: expressed in transfected cells; host or cells: S. cerevisiae Y190 pACT-HAB1
T4 sequence (O49686 whole entry Y58H/K59R/V81I/F108A/S122G/F159L): as the sequence (O49686 whole entry K59R/V81I/F108A/S122G/A160V) above, with Y58H, F159L, V160A counted along it
T4 sequence (Q9CAJ0 23-511 partner): as the sequence (Q9CAJ0 23-511 partner) above
From the text: as §1

[6] = target: T5, PYR1 Y58H K59R V81I F108A S122G V164I (Arabidopsis thaliana, UniProt O49686, F108A/K59R/S122G/V164I/V81I/Y58H); assay: Y2H Combinatorial Mutagenesis II (HAB1, X-gal); type: cell-based
T5 construct: expressed in transfected cells; host or cells: S. cerevisiae Y190 pACT-HAB1
T5 sequence (O49686 whole entry Y58H/K59R/V81I/F108A/S122G/V164I): as the sequence (O49686 whole entry K59R/V81I/F108A/S122G/A160V) above, with Y58H, V160A, V164I counted along it
T5 sequence (Q9CAJ0 23-511 partner): as the sequence (Q9CAJ0 23-511 partner) above
From the text: as §1

[7] = target: T6, PYR1 Y58H K59R V83L F108A S122G (Arabidopsis thaliana, UniProt O49686, F108A/K59R/S122G/V83L/Y58H); assay: Y2H Combinatorial Mutagenesis II (HAB1, X-gal); type: cell-based
T6 construct: expressed in transfected cells; host or cells: S. cerevisiae Y190 pACT-HAB1
T6 sequence (O49686 whole entry Y58H/K59R/V83L/F108A/S122G): as the sequence (O49686 whole entry K59R/V81I/F108A/S122G/A160V) above, with Y58H, I81V, V83L, V160A counted along it
T6 sequence (Q9CAJ0 23-511 partner): as the sequence (Q9CAJ0 23-511 partner) above
From the text: as §1

[8] = system: MDP1 and MDP2 transgenic lines (35S::PYR1^MANDI); assay: thermal imaging of leaf temperature; type: in vivo, Arabidopsis; settings: 1 μM mandipropamid, 24 hours after first application
[9] = system: transgenic 35S::PYR1^MANDI tomato plants; assay: thermal imaging of leaf temperature; type: in vivo; settings: 10 μM mandipropamid, 24 hours post treatment
From the text: The core ABA response pathway is highly conserved and it is therefore expected that PYR1^MANDI should be able to activate ABA responses in response to mandipropamid in most land plants. To investigate if the physiological activity of PYR1^MANDI is functional in other species besides Arabidopsis we made transgenic 35S::PYR1^MANDI tomato. The same construct utilized for construction of Arabidopsis transgenics (described in Example 5) was modified to contain a kanamycin selection marker. Tomato was transformed by Agrobacterium-mediated transformation, which was conducted as described by Sun et al. (2006) with a few modifications. Surface sterilized tomato seeds (strain UC82B) were germinated on sterilized wet filter paper in a petridish. Cotyledons from 7-day old seedlings were excised and dipped into a suspension of Agrobacterium in MS medium containing 100 μM acetosyringone and 10 μM 2-mercaptoethanol for 10 minutes. Explants were then placed on co-cultivation medium containing MS salts, 3% sucrose, 0.3% Gelite and 1.5 mg/L zeatin. After 3 days of co-culture in darkness, the explants were transferred onto callus induction medium containing MS salts, 3% sucrose, 0.3% Gelite, 1.5 mg/L zeatin and 100 mg/L kanamycin and 125 mg/L carbenicillin. Explants were transferred to freshly prepared medium every 2 weeks. […]

Q: How did the Threshold [1] turn out when `C#CCOc1ccc(CCNC(=O)C(OCC#C)c2ccc(Cl)cc2)cc1OC` (stereo not drawn) [Mandipropamid, mandipropamid] was run?
A: Its Threshold is 0.01 µM.

Q: And the Threshold [2]?
A: Its Threshold is 0.05 µM.

Q: What about the Threshold [3] of the same compound?
A: The Threshold was 0.05 µM.

Q: What about the Threshold [4] of the same compound?
A: Its Threshold is 0.002 µM.

Q: What about the “lowest mandipropamid concentration with detectable PYR1^MANDI-HAB1 interaction in yeast reporter strain” value [5] of the same compound?
A: Its value is 2 nM.

Q: What about the Threshold [6] of the same compound?
A: The Threshold was 0.01 µM.

Q: What about the Threshold [7] of the same compound?
A: The Threshold was 0.01 µM.

Q: And the leaf temperature [8]?
A: Its leaf temperature is “increased leaf temperature”.

Q: What about the leaf temperature [9] of the same compound?
A: Its leaf temperature is “increase in leaf temperature”.
